Measurements from ChEMBL document CHEMBL3045059, “Efficacy of ketoenols on insecticide resistant field populations of two-spotted spider mite Tetranychus urticae and sweet potato whitefly Bemisia tabaci from Greece” (2012).
Converted amounts (≈) assume the structure as drawn.

Tests used:
Format in all cases: functional
Bemisia tabaci [1] = test: Resistance ratio, ratio of imidacloprid LC50 to compound LC50 for second-instar nymph stage of Bemisia tabaci (sweet potato whitefly) greenhouse population GR187
Bemisia tabaci [2] = test: Resistance ratio, ratio of alpha-cypermethrin LC50 to compound LC50 for second-instar nymph stage of Bemisia tabaci (sweet potato whitefly) greenhouse population GR192
Bemisia tabaci [3] = test: Resistance ratio, ratio of alpha-cypermethrin LC50 to compound LC50 for second-instar nymph stage of Bemisia tabaci (sweet potato whitefly) greenhouse population GR187
Bemisia tabaci [4] = test: Resistance ratio, ratio of imidacloprid LC50 to compound LC50 for second-instar nymph stage of Bemisia tabaci (sweet potato whitefly) laboratory strain GRMAL-RN
Bemisia tabaci [5] = test: Acaricidal activity against second-instar nymph stage of Bemisia tabaci (sweet potato whitefly) greenhouse population GR194 in cotton leaves assessed as mortality incubated for 5 secs measured after 10 to 12 days
Bemisia tabaci [6] = test: Resistance ratio, ratio of alpha-cypermethrin LC50 to compound LC50 for second-instar nymph stage of Bemisia tabaci (sweet potato whitefly) greenhouse population GR258
Bemisia tabaci [7] = test: Resistance ratio, ratio of alpha-cypermethrin LC50 to compound LC50 for second-instar nymph stage of Bemisia tabaci (sweet potato whitefly) greenhouse population GR188
Bemisia tabaci [8] = test: Resistance ratio, ratio of imidacloprid LC50 to compound LC50 for second-instar nymph stage of Bemisia tabaci (sweet potato whitefly) greenhouse population GR194
Bemisia tabaci [9] = test: Acaricidal activity against second-instar nymph stage of Bemisia tabaci (sweet potato whitefly) field population GR163 in cotton leaves assessed as mortality incubated for 5 secs measured after 10 to 12 days
Bemisia tabaci [10] = test: Acaricidal activity against second-instar nymph stage of Bemisia tabaci (sweet potato whitefly) greenhouse population GR165 in cotton leaves assessed as mortality incubated for 5 secs measured after 10 to 12 days
Bemisia tabaci [11] = test: Resistance ratio, ratio of alpha-cypermethrin LC50 to compound LC50 for second-instar nymph stage of Bemisia tabaci (sweet potato whitefly) field population GR157
Bemisia tabaci [12] = test: Resistance ratio, ratio of alpha-cypermethrin LC50 to compound LC50 for second-instar nymph stage of Bemisia tabaci (sweet potato whitefly) laboratory strain GRMAL-RP
Bemisia tabaci [13] = test: Resistance ratio, ratio of alpha-cypermethrin LC50 to compound LC50 for second-instar nymph stage of Bemisia tabaci (sweet potato whitefly) greenhouse population GR194
Bemisia tabaci [14] = test: Resistance ratio, ratio of imidacloprid LC50 to compound LC50 for second-instar nymph stage of Bemisia tabaci (sweet potato whitefly) greenhouse population GR192
Bemisia tabaci [15] = test: Acaricidal activity against second-instar nymph stage of Bemisia tabaci (sweet potato whitefly) greenhouse population GR188 in cotton leaves assessed as mortality incubated for 5 secs measured after 10 to 12 days
Bemisia tabaci [16] = test: Resistance ratio, ratio of imidacloprid LC50 to compound LC50 for second-instar nymph stage of Bemisia tabaci (sweet potato whitefly) greenhouse population GR164
Bemisia tabaci [17] = test: Acaricidal activity against second-instar nymph stage of Bemisia tabaci (sweet potato whitefly) greenhouse population GR191 in cotton leaves assessed as mortality incubated for 5 secs measured after 10 to 12 days
Bemisia tabaci [18] = test: Resistance ratio, ratio of alpha-cypermethrin LC50 to compound LC50 for second-instar nymph stage of Bemisia tabaci (sweet potato whitefly) greenhouse population GR164
Bemisia tabaci [19] = test: Resistance ratio, ratio of imidacloprid LC50 to compound LC50 for second-instar nymph stage of Bemisia tabaci (sweet potato whitefly) greenhouse population GR165
Bemisia tabaci [20] = test: Resistance ratio, ratio of alpha-cypermethrin LC50 to compound LC50 for second-instar nymph stage of Bemisia tabaci (sweet potato whitefly) greenhouse population GR165
Bemisia tabaci [21] = test: Resistance ratio, ratio of alpha-cypermethrin LC50 to compound LC50 for second-instar nymph stage of Bemisia tabaci (sweet potato whitefly) field population GR163
Bemisia tabaci [22] = test: Resistance ratio, ratio of imidacloprid LC50 to compound LC50 for second-instar nymph stage of Bemisia tabaci (sweet potato whitefly) field population GR157
Bemisia tabaci [23] = test: Acaricidal activity against second-instar nymph stage of Bemisia tabaci (sweet potato whitefly) laboratory strain GRMAL-RP in cotton leaves assessed as mortality incubated for 5 secs measured after 10 to 12 days
Bemisia tabaci [24] = test: (§1) Acaricidal activity against second-instar nymph stage of Bemisia tabaci (sweet potato whitefly) greenhouse population GR164 in cotton leaves assessed as survival of the parent population at 30 mg/l incubated for 5 secs measured after 10 to 12 days by applying constant selection pressure under laboratory conditions
Bemisia tabaci [25] = test: Acaricidal activity against second-instar nymph stage of Bemisia tabaci (sweet potato whitefly) greenhouse population GR187 in cotton leaves assessed as mortality incubated for 5 secs measured after 10 to 12 days
Bemisia tabaci [26] = test: Resistance ratio, ratio of imidacloprid LC50 to compound LC50 for second-instar nymph stage of Bemisia tabaci (sweet potato whitefly) greenhouse population GR191
Bemisia tabaci [27] = test: Resistance ratio, ratio of imidacloprid LC50 to compound LC50 for second-instar nymph stage of Bemisia tabaci (sweet potato whitefly) field population GR163
Bemisia tabaci [28] = test: Acaricidal activity against second-instar nymph stage of Bemisia tabaci (sweet potato whitefly) field population GR157 in cotton leaves assessed as mortality incubated for 5 secs measured after 10 to 12 days
Bemisia tabaci [29] = test: Resistance ratio, ratio of imidacloprid LC50 to compound LC50 for second-instar nymph stage of Bemisia tabaci (sweet potato whitefly) greenhouse population GR188
Bemisia tabaci [30] = test: Resistance ratio, ratio of alpha-cypermethrin LC50 to compound LC50 for second-instar nymph stage of Bemisia tabaci (sweet potato whitefly) field population GR259
Bemisia tabaci [31] = test: Resistance ratio, ratio of alpha-cypermethrin LC50 to compound LC50 for second-instar nymph stage of Bemisia tabaci (sweet potato whitefly) greenhouse population GR191
Bemisia tabaci [32] = test: Resistance ratio, ratio of imidacloprid LC50 to compound LC50 for second-instar nymph stage of Bemisia tabaci (sweet potato whitefly) greenhouse population GR258
Bemisia tabaci [33] = test: Acaricidal activity against second-instar nymph stage of Bemisia tabaci (sweet potato whitefly) greenhouse population GR192 in cotton leaves assessed as mortality incubated for 5 secs measured after 10 to 12 days
Bemisia tabaci [34] = test: Acaricidal activity against second-instar nymph stage of Bemisia tabaci (sweet potato whitefly) field population GR259 in cotton leaves assessed as mortality incubated for 5 secs measured after 10 to 12 days
Bemisia tabaci [35] = test: Acaricidal activity against second-instar nymph stage of Bemisia tabaci (sweet potato whitefly) laboratory strain GRMAL-RN in cotton leaves assessed as mortality incubated for 5 secs measured after 10 to 12 days
Bemisia tabaci [36] = test: as §1, with “survival” for “survival of the parent population”, “mg/l at the last selection cycle of four generations” for “mg/l”
Bemisia tabaci [37] = test: Acaricidal activity against second-instar nymph stage of Bemisia tabaci (sweet potato whitefly) greenhouse population GR164 in cotton leaves assessed as mortality incubated for 5 secs measured after 10 to 12 days
Bemisia tabaci [38] = test: Resistance ratio, ratio of imidacloprid LC50 to compound LC50 for second-instar nymph stage of Bemisia tabaci (sweet potato whitefly) field population GR259
Bemisia tabaci [39] = test: Acaricidal activity against second-instar nymph stage of Bemisia tabaci (sweet potato whitefly) greenhouse population GR258 in cotton leaves assessed as mortality incubated for 5 secs measured after 10 to 12 days

Cc1cc(C)c(C2=C(OC(=O)CC(C)(C)C)C3(CCCC3)OC2=O)c(C)c1 [SPIROMESIFEN]
RatioLC50 (Bemisia tabaci [1]): 94 | RatioLC50 (Bemisia tabaci [2]): 179 | RatioLC50 (Bemisia tabaci [3]): 101 | RatioLC50 (Bemisia tabaci [4]): 958 | LC95 (Bemisia tabaci [5]): 49.23 mg/L (≈ 133 µM) | LC50 (Bemisia tabaci [5]; Bemisia tabaci, GR194, Nymph stage): 6.4 mg/L (≈ 17.3 µM) | RatioLC50 (Bemisia tabaci [6]): 1190 | RatioLC50 (Bemisia tabaci [7]): 105 | RatioLC50 (Bemisia tabaci [8]): 247 | LC95 (Bemisia tabaci [9]): 85.08 mg/L (≈ 230 µM) | LC50 (Bemisia tabaci [9]; Bemisia tabaci, GR163, Nymph stage): 11.6 mg/L (≈ 31.3 µM) | LC95 (Bemisia tabaci [10]): 37.16 mg/L (≈ 100 µM) | LC50 (Bemisia tabaci [10]; Bemisia tabaci, GR165, Nymph stage): 4.5 mg/L (≈ 12.1 µM) | RatioLC50 (Bemisia tabaci [11]): 426 | RatioLC50 (Bemisia tabaci [12]): >621 | RatioLC50 (Bemisia tabaci [13]): 142 | RatioLC50 (Bemisia tabaci [14]): 323 | LC95 (Bemisia tabaci [15]): 21.41 mg/L (≈ 57.8 µM) | LC50 (Bemisia tabaci [15]; Bemisia tabaci, GR188, Nymph stage): 6.1 mg/L (≈ 16.5 µM) | RatioLC50 (Bemisia tabaci [16]): 7 | LC95 (Bemisia tabaci [17]): 18.62 mg/L (≈ 50.3 µM) | LC50 (Bemisia tabaci [17]; Bemisia tabaci, GR191, Nymph stage): 5.1 mg/L (≈ 13.8 µM) | RatioLC50 (Bemisia tabaci [18]): 42 | RatioLC50 (Bemisia tabaci [19]): 73 | RatioLC50 (Bemisia tabaci [20]): 256 | RatioLC50 (Bemisia tabaci [21]): 478 | RatioLC50 (Bemisia tabaci [22]): 88 | LC95 (Bemisia tabaci [23]): 50.31 mg/L (≈ 136 µM) | LC50 (Bemisia tabaci [23]; Bemisia tabaci, GRMAL-RP, Nymph stage): 1.1 mg/L (≈ 2.97 µM) | survival at 30 µg/mL (Bemisia tabaci [24]): 27% | LC95 (Bemisia tabaci [25]): 24.95 mg/L (≈ 67.3 µM) | LC50 (Bemisia tabaci [25]; Bemisia tabaci, GR187, Nymph stage): 4.6 mg/L (≈ 12.4 µM) | RatioLC50 (Bemisia tabaci [26]): 120 | RatioLC50 (Bemisia tabaci [27]): 46 | LC95 (Bemisia tabaci [28]): 139.9 mg/L (≈ 378 µM) | LC50 (Bemisia tabaci [28]; Bemisia tabaci, GR157, Nymph stage): 5.4 mg/L (≈ 14.6 µM) | RatioLC50 (Bemisia tabaci [29]): 353 | RatioLC50 (Bemisia tabaci [30]): 741 | RatioLC50 (Bemisia tabaci [31]): 179 | RatioLC50 (Bemisia tabaci [32]): 369 | LC95 (Bemisia tabaci [33]): 44.79 mg/L (≈ 121 µM) | LC50 (Bemisia tabaci [33]; Bemisia tabaci, GR192, Nymph stage): 14 mg/L (≈ 37.8 µM) | LC95 (Bemisia tabaci [34]): 30.74 mg/L (≈ 83 µM) | LC50 (Bemisia tabaci [34]; Bemisia tabaci, GR259, Nymph stage): 7.9 mg/L (≈ 21.3 µM) | LC95 (Bemisia tabaci [35]): 47.61 mg/L (≈ 129 µM) | LC50 (Bemisia tabaci [35]; Bemisia tabaci, GRMAL-RN, Nymph stage): 6.7 mg/L (≈ 18.1 µM) | survival at 30 µg/mL (Bemisia tabaci [36]): 13% | LC95 (Bemisia tabaci [37]): 69.44 mg/L (≈ 187 µM) | LC50 (Bemisia tabaci [37]; Bemisia tabaci, GR164, Nymph stage): 12 mg/L (≈ 32.4 µM) | RatioLC50 (Bemisia tabaci [38]): 323 | LC95 (Bemisia tabaci [39]): 49.19 mg/L (≈ 133 µM) | LC50 (Bemisia tabaci [39]; Bemisia tabaci, GR258, Nymph stage): 12 mg/L (≈ 32.4 µM)
